# Reference: patent publication US20240238237A1, “CONJUGATED LINOLEIC ACID SUPPLEMENTATION FOR DISEASE TREATMENT” (VIRGINIA TECH INTELLECTUAL PROPERTIES, INC., priority 2021, published 2024)
# “Also recorded” adds a separate entry of the source.
# Experiments:
# [1] = tested on: WT, PWS (Snord116m+/p−) and PWS-KO (Snord116m−/p−) mice; test: Weekly body weight, fat and lean mass (NMR), rectal temperature and food intake, Example 1; format: in vivo, mouse
# Description: All animal protocols were approved by the Institutional Animal Care and Use Commit-tee at Virginia Tech. Mice with the Snord116 paternal deletion (B6[Cg]-Snord116tm1.1Uta/J Stock No: 008149|1-loxp (KO), Snord116del) were obtained from Jackson Laboratories and maintained on a C57Bl/6 background. Genotyping and breeding were performed as reported. WT mice for the study were siblings of either the PWS (Snord116m+/p−) or PWS-KO (Snord116m−/p−) mice. PWS mice were generated by crossing WT females and male mice who were Snord116m−/p+. Breeder males (Snord116m−/p+) were generated in separate crosses to inherited their deleted allele from a maternal chromosome so that they were considered phenotypically normal in regards to Snord116 expression. PWS-KO (Snord116m−/p−) mice were generated by using non-sibling male and female mice of the genotype Snord116m−/p+ who had inherited their deleted allele maternally. In this type of mating, 50% of the offspring would be heterozygous (and never used for mating or the study, as the origin of their deleted allele could not be determined), and 25% each would have WT alleles or would be PWS-KO. Mice were housed at room temperature at about 22° C. with 12 h light/dark cycles at 7 a.m. and 7 p.m. and ad-libitum access to food (4.5% crude fat) and water. Mice were weaned at 3 weeks old, genotyped using an ear snip, […]. ear tagged, and housed with littermates of the same sex. For tissue dissection, mice were euthanized by CO2 asphyxiation between 12 p.m. and 2 p.m.
# Body weight, fat, and lean mass, rectal temperature, and food intake were measured weekly. For body weight, fat, and lean mass measurements, mice were weighed on Mondays using a standard scale, and then placed in a Bruker (Billrica, MA, USA) LF90 NMR machine using the mouse holder. Measurements were recorded in grams for fat and lean mass.
# All values were expressed as mean+SEM unless indicated otherwise. Comparison of means between groups and calculation of p-values were made using JMP Pro15 software (Cary, NC, USA), with Tukey's post hoc analysis for multiple comparisons when overall p-values in the comparison were significant. For the responses of weight, fat, lean mass, temperature, and food intake shown in figures, a fitted least squares regression with effects of genotype, treatment, and genotype×treatment was analyzed for Week 12 data only. Responses of these dependent variables were also analyzed across the 12-week time period, adding in effects of week, week×treatment, and week×genotype. […] The responses that had pre-post measures (wheel running, elevated plus, fasting glucose, glucose tolerance) were analyzed separately for the pre and post time periods (no effect of time). Animals were grouped together for the pre time period, regardless of their assigned data, as all animals were on standard mouse chow at that time. […] Rotarod data were collected only during the post-period and analyzed with a response of time and effects of genotype, treatment, and genotype×treatment. For area-under-the-curve calculations, the formula function in JMP was used to calculate the area for individual animals pre and post, and then fit least squares regression model used for effects of genotype, treatment, and genotype×treatment.
# [2] = tested on: N2KO (Nhlh2 deletion) and WT mice; test: Body weight, body fat and lean mass in N2KO mice, Example 3; format: in vivo, mouse
# Description: In males, incidence of HH is as high as one in 4000, with incidence in females being about 2-5 times lower. It was previously shown that mice containing a mutation of Nhlh2, a neuronal basic-helix-loop-helix transcription factor show a failure of pubertal onset, adult-onset obesity and hypogonadism. These mice are termed N2KO mice. […] In this Example, N2KO and WT mice were treated with about 0.5% CLA for 12 weeks.
# [3] = tested on: N2KO mice; settings: 20% fat diet, refs [13-16]; cited from earlier work
# [4] = tested on: Normal, Snord116m+/p− (PWS model) and PWS KO mice; test: Body weight, body fat and lean mass, 12-week feeding study, Example 2; format: in vivo, mouse; settings: 12 weeks, CLA 0.5% per gram food
# Source text: Normal an d Snord116^m+/p− mice (PWS model), as well as mice with a complete deletion of Snord116 (PWS KO) were randomly divided into control or CLA-treatment groups. the diets (from Envigo/Harland-Teklad) were composed of 20% fat, and matched in all other components. Conjugated linoleic acid (Tonalin™, composed of 60%-90% of the cis-9, trans-11 and trans-10, cis-12 CLA isomers in a 50/50 ratio) was provided to the CLA-treatment groups to equal 0.5% per gram food intake.
# Adult mice (aged 8-10 weeks) were housed individually, and given ad libitum access to either control or CLA food for 12 weeks. They were weighed weekly, and food intake, body fat, body lean mass, and rectal temperature were measured weekly.
# [5] = tested on: WT, PWS (Snord116m+/p−) and PWS-KO (Snord116m−/p−) mice; test: Elevated plus maze anxiety-like behavior, Example 1; format: in vivo, mouse; settings: pre- and post-intervention; genotype, treatment or interaction
# Description: A plus-shaped elevated plus apparatus with two open and two closed arms was constructed using measurements obtained from a commercial apparatus. This elevated plus maze was used for anxiety-like behavior analysis. The maze was cleaned with 70% ethanol before and after the procedure for each mouse and allowed to fully dry between mice. Mice were placed in the center/cross-arms and allowed to freely explore the maze for 5 min while the duration and frequency of entries into open and closed arms was recorded. Animals that enter the open arms more frequently are considered to display less overall anxiety-like behavior than those that stay in the closed arms.
# [6] = tested on: WT, PWS (Snord116m+/p−) and PWS-KO (Snord116m−/p−) mice; test: Fasting glucose and glucose tolerance test; format: in vivo, mouse; settings: all genotypes, after 12 weeks diet, vs control diet
# Description: Mice were food-deprived for 12-15 h during the dark cycle in a cage devoid of bedding material. For the fasting measurement, the tail was snipped (1-2 mm), and blood was collected directly on Care Touch glucose test strips and directly measured using a Care Touch blood glucose monitor (Future Diagnostics USA, Brooklyn, NY, USA). Glucose (pharmaceutical grade dextrose, 2 g/kg in PBS, sterile) was injected intraperitoneally (IP) and tail blood samples were obtained at 15, 30, 60, 90, and 120 min following the injection. Area under the curve was calculated using the formula (((([fasting glucose×7.5]+[15 min glucose×15)+[30 min glucose×22.5])+[60 min glucose×30])+[90 min glucose×30])+[120 min glucose×15]).
substance,measurement,setting,value
conjugated linoleic acid [CLA],"Body fat, WT control diet more than WT CLA diet","[1]; WT mice, end of study",~4 g
same,Reduction in body fat levels with treatment,"[1]; all genotypes, vs control HFD alone",3.6 fold
same,"Body weight, overall effect of CLA diet","[1]; all three genotypes, 20% fat diet, vs control diet",significant reductions in body weight overall for the three genotypes
same,"Body weight, post hoc per genotype",[1]; each genotype on CLA diet vs control diet,significant body weight reductions
same,"Lean mass, treatment effect","[1]; whole model, 12 weeks",without a treatment effect
same,"Lean mass, N2KO study",[2]; 12 weeks CLA,significantly improved
same,"Body fat, N2KO mice",[2]; about 0.5% CLA for 12 weeks,reduced; also recorded: decreased body fat; also recorded: significant reduction
same,"Body weight, N2KO mice",[2]; about 0.5% CLA for 12 weeks,reduced body weight; also recorded: improved body weight; also recorded: significant reduction
same,Outcomes of CLA treatment of N2KO mice,[3],"weight loss, decreased body fat, increased metabolism, muscle mitochondrial biogenesis, and increased exercise performance"
same,Lean (muscle) mass,[4],no changed; also recorded: did not change
same,Body fat,[4]; vs control diet,significant reduction
same,Body weight,[4]; vs control diet,significant reduction
same,"Time in open arms, elevated plus",[5],no differences
same,Fasting glucose,[6],significantly higher; also recorded: significantly increased fasting glucose
